Reference: patent US20250351832A1, “PHYTOCHEMICALS AS BIOPESTICIDES AND BIOSTIMULANTS” (KAY BEE BIO ORGANICS PVT. LTD., priority 2024, published 2025)
Like-named read-outs stand apart in the source and are kept apart here.

Columns and labels:
Tomato thrips = test: In vitro bio-efficacy, Tomato thrips (Ex. 57)
[1] = system: Rice Bacterial Blight (BLB) (Xanthomonas oryzae pv. Oryzae); type: in vivo; details: dose 500 PPM
[2] = system: Cotton Bacterial Leaf Blight (Xanthomonas citri pv. Malvacearum); test: Field trial, cotton bacterial leaf blight (Ex. 96); details: dose 500 PPM
[3] = system: Potato Bacterial Blight (BLB) (Ralstonia solanacearum); type: in vivo; details: dose 500 PPM
Spodoptera litura [4] = details: Spodoptera litura on castor leaves; dose 1 ml/gm/lit.; 10 insects/treatment; 72 hrs after application
Helicoverpa armigera [5] = details: Helicoverpa armigera 3rd instar on chickpea plants, dose 1 ml/gm/lit. spray
Spodoptera litura [6] = test: whole plant or invertebrate; details: 72 h
Thrips [7] = test: whole plant or invertebrate; details: in Gossypium hirsutum, 48 h
Alternaria alternata [8] = test: Alternaria leaf spot/blight on inoculated tomato plants (Ex. 28); type: in vivo; details: tomato plants, Alternaria alternata; after 7 days; dose 1 ml/gm/lit
Helicoverpa armigera [9] = details: Helicoverpa armigera on okra fruits, dose 1 ml/gm/lit., 72 Hrs.
Aphid [10] = details: Aphids on cotton plants, green house; dose 1 ml/gm/lit.; 10 insects/plant, 10 plants/treatment; 48 hrs
Thrips [11] = details: thrips on cotton plants, greenhouse, dose 1 ml/gm/lit. spray
Spodoptera litura [12] = details: Spodoptera litura 3rd instar on cabbage plants, dose 1 ml/gm/lit. spray
Mite [13] = details: Dose 1 ml/gm/lit.
Alternaria alternata [14] = test: In vitro poisoned food technique against fungus (Ex. 20); type: cell-based; details: poisoned food technique, PDA medium, dose 1 ml/gm/lit., after seven days
Thrips [15] = details: Thrips on cotton leaves; dose 1 ml/gm/lit.; 10 insects/treatment; 48 hrs after application
chili seedlings = test: Response of chili plants, greenhouse growth (Ex. 31); type: in vivo; details: chili seedlings, dose 1 ml/gm/lit
Mealy Bug [16] = details: Mealy Bug on cotton leaves, dose 1 ml/gm/lit., 48 Hrs.
Mealy Bug [17] = details: mealy bug on cotton plants, green house, dose 1 ml/gm/lit. spray
[18] = cited from earlier work
Aphid [19] = details: Dose 1 ml/gm/lit.
Aphid [20] = test: whole plant or invertebrate; details: 48 h
tomato seedlings = test: Response of tomato plants, greenhouse growth (Ex. 30); type: in vivo; details: tomato seedlings, dose 1 ml/gm/lit
Mite [21] = details: mite on okra plants, green house, dose 1 ml/gm/lit. spray
[22] = 72 hrs, corrected for water control
[23] = read-out: % Corrected Mortality at 48 Hrs.
[24] = read-out: % Mortality at 48 Hrs.
[25] = 10 insects/treatment, 4 replications
[26] = 48 hrs, corrected for water control
[27] = Table 13, descriptive, no test described

CON=CNC(=O)c1ccc(C2=NOC(c3cc(Cl)cc(Cl)c3)(C(F)(F)F)C2)cc1C (stereo not shown) [Fluxametamide]
% Corrected Mortality at 72 hrs. (Tomato thrips; Dose 0.8 ml/lit): 57.89% | % Mortality at 72 hrs. (Tomato thrips; Dose 0.8 ml/lit): 60.0% | Total no of dead insects at 72 hrs. (Tomato thrips; Dose 0.8 ml/lit): 24.0

O=[N+]([O-])C(Br)(CO)CO [Bromopol]
% Disease Infection after 1st spray [1]: 22.18% | % Disease Infection after 2nd spray [1]: 19.63% | % Disease Reduction Over Control after 1st spray [1]: 61.71% | % Disease Reduction Over Control after 2nd spray [1]: 74.02% | % Increase in yield over control ([1]; rice): 8.31% | Yield ([1]; rice): 4.09 t/ha | % Increase in yield over control ([2]; cotton): 7.93% | Yield ([2]; cotton): 24.96 qtl/ha | % Disease Infection after 1st spray [2]: 30.65% | % Disease Infection after 2nd spray [2]: 12.86% | % Disease Reduction Over Control after 1st spray [2]: 47.43% | % Disease Reduction Over Control after 2nd spray [2]: 81.68% | % Disease Infection after 1st spray [3]: 24.49% | % Disease Infection after 2nd spray [3]: 21.79% | % Disease Reduction Over Control after 1st spray [3]: 53.59% | % Disease Reduction Over Control after 2nd spray [3]: 71.13% | % Increase in yield over control ([3]; potato): 7.64% | Yield ([3]; potato): 22.24 t/ha

CN(C(=O)c1ccccc1)c1cccc(C(=O)Nc2c(Br)cc(C(F)(C(F)(F)F)C(F)(F)F)cc2C(F)(F)F)c1F [Brofranilide]
% Corrected Mortality at 72 hrs. (Tomato thrips; Dose 0.17 ml/lit): 47.37% | % Mortality at 72 hrs. (Tomato thrips; Dose 0.17 ml/lit): 50.0% | Total no of dead insects at 72 hrs. (Tomato thrips; Dose 0.17 ml/lit): 20.0

CC12CCC(CC1=O)C2(C)C (stereo not shown) [Camphor]
Total No. of dead insect at 72 Hrs. (Spodoptera litura [4]): 4.25 | % Mortality at 72 Hrs. (Helicoverpa armigera [5]; 72 hrs after application): 55.00% | % Corrected Mortality at 72 Hrs. (Helicoverpa armigera [5]; [22]): 55.00% | mortality at 1 mL or g/L (Spodoptera litura [6]; read-out: % Corrected Mortality at 72 Hrs.): 39.5% | mortality at 1 mL or g/L (Spodoptera litura [6]; read-out: % Mortality at 72 Hrs.): 42.5% | mortality at 1 mL or g/L (Thrips [7]; [23]): 37.1% | mortality at 1 mL or g/L (Thrips [7]; [24]): 45% | % Disease reduction over Control (Alternaria alternata [8]): 46.28% | Total No. of dead insect at 72 Hrs. (Helicoverpa armigera [9]; [25]): 6.00 | % Mortality at 72 Hrs. (Helicoverpa armigera [9]): 60.00% | % Corrected Mortality at 72 Hrs. (Helicoverpa armigera [9]; corrected for water control): 60.00% | Total No. of dead insect at 48 Hrs. (Aphid [10]): 60.00 | % Mortality at 48 Hrs. (Thrips [11]; 48 hrs after application): 42.50% | Total No. of dead insect at 48 Hrs. (Thrips [11]; 48 hrs after application): 42.50 | % Corrected Mortality at 48 Hrs. (Thrips [11]; [26]): 36.11% | % Mortality at 72 Hrs. (Spodoptera litura [12]; 72 hrs after application): 45.00% | % Corrected Mortality at 72 Hrs. (Spodoptera litura [12]; [22]): 42.11% | Total No. of dead insect at 48 Hrs. (Mite [13]; 10 insects/treatment, 4 replications, okra leaves): 6.75 | % Corrected Mortality at 48 Hrs. (Mite [13]; 48 hrs): 64.86% | Mean colony Diameter (mm) (Alternaria alternata [14]): 60.00 mm | inhibition of growth at 1 mL or g/L (Alternaria alternata [14]; vs untreated control, read-out: % Inhibition of growth): 31.8% | Total No. of dead insect at 48 Hrs. (Thrips [15]): 4.50 | CCI 5th Day (chili seedlings; 5th day after application): 11.80 | Plant Height (cm) 5th Day (chili seedlings; 5th day after application): 5.70 cm | CCI % Increase over pre on 10th Day (chili seedlings; 10th day): 25.81% | Plant Height % Increase over pre on 10th Day (chili seedlings; 10th day): 56.20% | Root Lenght (cm) 10th Day (chili seedlings; 10th day): 3.47 cm | Stem Girth % Increase over pre on 10th Day (chili seedlings; 10th day): 44.32% | CCI 10th Day (chili seedlings; 10th day after application): 13.21 | Plant Height (cm) 10th Day (chili seedlings; 10th day after application): 6.30 cm | Root Lenght % Increase over control (chili seedlings; 10th day, vs water control): 26.68% | Total No. of dead insect at 48 Hrs. (Mealy Bug [16]; [25]): 5.25 | % Mortality at 48 Hrs. (Mealy Bug [16]): 52.50% | % Corrected Mortality at 48 Hrs. (Mealy Bug [16]; corrected for water control): 50.00% | % Mortality at 48 Hrs. (Mealy Bug [17]; 48 hrs after application): 67.50% | Total No. of dead insect at 48 Hrs. (Mealy Bug [17]; 48 hrs after application): 67.50 | % Corrected Mortality at 48 Hrs. (Mealy Bug [17]; [26]): 63.89% | Acaricidal Activity - Mode of action [18, 27]: Deteriorating respiratory | Antifungal Activity - Mode of action [18, 27]: Repel fungal infections | Antioxidant Activity - Mode of action [18, 27]: Free radical scavenging | Bactericidal Activity - Mode of action [18, 27]: Inhibit microbial growth, | Insecticidal Activities - Mode of action [18, 27]: Strong contact toxicity | Nematicidal Activity - Mode of action [18, 27]: Strong activity against | Virucidal Activity - Mode of action [18, 27]: Control the spread of viral | Phytotonic Effect ([18]; Table 13, effect on plants, descriptive): Strong | Total No. of dead insect at 48 Hrs. (Aphid [19]; 10 insects/treatment, 4 replications, cotton leaves): 5.75 | % Corrected Mortality at 48 Hrs. (Aphid [19]; 48 hrs): 51.43% | % Mortality at 48 Hrs. (Aphid [19]; 48 hrs): 57.50% | mortality at 1 mL or g/L (Aphid [20]; [23]): 52.9% | mortality at 1 mL or g/L (Aphid [20]; [24]): 60% | Plant Height 5th Day (tomato seedlings; 5th day after application): 6.34 cm | Stem Girth 5th Day (tomato seedlings; 5th day after application): 1.90 mm | Plant Height 10th Day (tomato seedlings; 10th day after application): 6.96 cm | Stem Girth 10th Day (tomato seedlings; 10th day after application): 2.06 mm | Plant Height % Increase over pre on 10th Day (tomato seedlings; 10th day): 27.94% | Stem Girth % Increase over pre on 10th Day (tomato seedlings; 10th day): 53.50% | CCI 5th Day (tomato seedlings; 5th day after application): 13.64 | CCI % Increase over pre on 10th Day (tomato seedlings; 10th day): 26.67% | Root Length (cm) 10th Day (tomato seedlings; 10th day): 3.58 cm | CCI 10th Day (tomato seedlings; 10th day after application): 14.82 | Root Length % Increase over control (tomato seedlings; 10th day, vs water control): 7.76% | % Mortality at 48 Hrs. (Mite [21]; 48 hrs after application): 65.00% | Total No. of dead insect at 48 Hrs. (Mite [21]; 48 hrs after application): 65.00 | % Corrected Mortality at 48 Hrs. (Mite [21]; [26]): 63.16%
